Experimental data taken from patent US9745360B2 (Sanofi, priority 2012, dated 2017).
≈ marks a conversion by molar mass, not a printed value. Like-named read-outs stand apart in the source and are kept apart here. *1 amine or outer side, *2 acyl side, *3 side chain or, on linkers, in order; H or OH if unused. Where a SMILES comes first, the peptide text is derived from it. Side-chain parts run from the residue outwards. [ ]: non-standard residue; d: D form. The star is where a group is joined. γGlu = O=C(O)[C@H](CCC(=O)[*:2])N[*:1]; Stearoyl = CCCCCCCCCCCCCCCCCC(=O)*; Palmitoyl = CCCCCCCCCCCCCCCC(=O)*; d(αMeK) = C[C@@](N)(CCCCN)C(=O)O; αMeOrn = C[C@](N)(CCCN)C(=O)O; Aib = CC(C)(N)C(=O)O

Tests used:
[1] = target: T1, human GLP-1 receptor (hGLP-1 R) (Homo sapiens, UniProt P43220); test: cAMP response (HTRF) of HEK-293 cells stably expressing human GLP-1 receptor; format: cell-based; details: Table 7; cAMP formation
T1 construct: expressed in transfected cells
Description: (§1) cAMP content of cells was determined using a kit from Cisbio Corp. (cat. no. 62AM4PEC) based on HTRF (Homogenous Time Resolved Fluorescence). For preparation, cells were split into T175 culture flasks and grown overnight to near confluency in medium (DMEM/10% FBS). Medium was then removed and cells washed with PBS lacking calcium and magnesium, followed by proteinase treatment with accutase (Sigma-Aldrich cat. no. A6964). Detached cells were washed and resuspended in assay buffer (1×HBSS; 20 mM HEPES, 0.1% BSA, 2 mM IBMX) and cellular density determined. They were then diluted to 400000 cells/ml and 25 μl-aliquots dispensed into the wells of 96-well plates. For measurement, 25 μl of test compound in assay buffer was added to the wells, followed by incubation for 30 minutes at room temperature.

[2] = target: T2, human glucagon receptor (hGLUC R) (Homo sapiens, UniProt P47871); test: cAMP response (HTRF) of HEK-293 cells stably expressing human glucagon receptor; format: cell-based; details: Table 7; cAMP formation
T2 construct: expressed in transfected cells
Description: as §1

[3] = target: T3, human GIP receptor (hGIP R) (Homo sapiens, UniProt P48546); test: cAMP response (HTRF) of HEK-293 cells stably expressing human GIP receptor; format: cell-based; details: Table 7; cAMP formation
T3 construct: expressed in transfected cells
T3 sequence (P48546 22-466): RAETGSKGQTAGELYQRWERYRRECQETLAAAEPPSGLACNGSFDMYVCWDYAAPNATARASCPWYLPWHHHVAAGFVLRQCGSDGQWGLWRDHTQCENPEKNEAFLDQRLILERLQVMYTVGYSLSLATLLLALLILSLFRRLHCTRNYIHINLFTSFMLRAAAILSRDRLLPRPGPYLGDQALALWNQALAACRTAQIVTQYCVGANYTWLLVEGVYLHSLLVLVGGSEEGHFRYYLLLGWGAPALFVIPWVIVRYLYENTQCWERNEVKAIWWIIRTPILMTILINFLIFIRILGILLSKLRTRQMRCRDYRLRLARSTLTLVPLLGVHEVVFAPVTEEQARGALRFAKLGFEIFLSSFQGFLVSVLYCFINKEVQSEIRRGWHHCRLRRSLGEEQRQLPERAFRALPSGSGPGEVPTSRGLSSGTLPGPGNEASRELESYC
Description: as §1

[4] = system: non-fasted female diabetic dbdb-mice; test: Glucose lowering in non-fasted female diabetic dbdb-mice; format: in vivo; details: 3 μg/kg s.c., at 240 min, kept to 480 min, baseline 20-22 mmol/l
Source text: Female diabetic dbdb-mice of mean non-fasted glucose value of 20-22 mmol/l and a body weight of 42 g+/−0.6 g (SEM) were used. Mice were individually marked and were adapted to housing conditions for at least one week.
3-5 days prior to study start mice were assigned to groups and cages (4 mice per cage, 8 per group, control group 16) according to their non-fasted glucose values to ensure even distribution of lower and higher values between groups (stratification). On the study day, mice were weighed and dosed (t=0). Immediately prior to compound administration feed was removed while water remained available, and a first blood sample at a tail incision was drawn (baseline). Further blood samples were drawn at the tail incision at 30, 60, 90, 120, 240, 360, and 480 min.
Statistical analyses are performed with Everstat Version 6.0 based on SAS by 2-way-ANOVA on repeated measures, followed by Dunnett's post-hoc test against vehicle-control. Differences are considered statistically significant at the p<0.05 level.

[5] = Solubility testing in buffer, HPLC-UV of supernatant; format: physicochemical; details: buffer, target concentration 1.0 mg/mL
Description: (§2) Solubility and chemical stability of peptidic compounds were assessed as described in Methods.

[6] = Chemical stability in solution, 7 days at 25° C., % remaining peptide; format: physicochemical; details: % remaining peptide after 7 days at 25° C.
Description: The chemical stability is expressed as “% remaining peptide”.
as §2

[7] = Pharmacokinetic testing in mice, s.c., LC/MS of plasma; format: in vivo; details: mouse, sc, 1 mg/kg s.c.
Description: Mice were dosed 1 mg/kg subcutaneously (s.c.).
Pharmacokinetic profiles were determined as described in Methods.

[8] = pH 4.5, read-out: Solubility (pH 4.5)
[9] = pH 7.4, read-out: Solubility (pH 7.4)

T1 sequence (P43220 24-463): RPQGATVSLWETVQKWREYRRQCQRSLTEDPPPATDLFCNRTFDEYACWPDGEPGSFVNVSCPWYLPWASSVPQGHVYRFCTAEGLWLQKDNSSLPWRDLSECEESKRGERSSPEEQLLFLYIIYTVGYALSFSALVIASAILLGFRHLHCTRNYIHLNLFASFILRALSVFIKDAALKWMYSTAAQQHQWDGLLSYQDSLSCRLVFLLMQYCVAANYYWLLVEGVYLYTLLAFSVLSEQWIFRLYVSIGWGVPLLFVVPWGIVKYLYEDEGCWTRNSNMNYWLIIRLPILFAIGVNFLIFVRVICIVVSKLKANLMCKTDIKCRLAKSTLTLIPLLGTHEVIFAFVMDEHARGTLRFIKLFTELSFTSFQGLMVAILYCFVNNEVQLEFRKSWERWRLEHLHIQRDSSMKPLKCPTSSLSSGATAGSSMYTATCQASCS
T2 sequence (P47871 26-477): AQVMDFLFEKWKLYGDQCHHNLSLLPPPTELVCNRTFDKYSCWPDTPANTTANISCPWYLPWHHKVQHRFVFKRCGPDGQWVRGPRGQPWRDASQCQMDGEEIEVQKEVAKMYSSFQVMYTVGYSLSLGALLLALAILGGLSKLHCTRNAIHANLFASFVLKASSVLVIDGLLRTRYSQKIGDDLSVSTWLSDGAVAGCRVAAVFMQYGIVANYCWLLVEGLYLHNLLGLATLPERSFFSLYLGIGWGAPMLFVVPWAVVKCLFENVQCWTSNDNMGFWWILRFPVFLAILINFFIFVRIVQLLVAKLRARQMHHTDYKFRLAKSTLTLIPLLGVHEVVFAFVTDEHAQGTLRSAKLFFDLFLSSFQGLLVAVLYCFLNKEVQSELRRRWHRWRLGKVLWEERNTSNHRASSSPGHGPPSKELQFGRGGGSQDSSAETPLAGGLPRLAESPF

| SMILES | EC50 [1] | EC50 [2] | EC50 [3] | maximal effect, glucose reduction [4] | solubility at 2 h [5, 8] | solubility at 2 h [5, 9] | Stability (pH 4.5) [6] | Stability (pH 7.4) [6] | Cmax [7] | half-life [7] |
| --- | --- | --- | --- | --- | --- | --- | --- | --- | --- | --- |
| CCCCCCCCCCCCCCCC(=O)N[C@@H](CCC(=O)NCCCC[C@H](NC(=O)[C@H](CCC(N)=O)NC(=O)[C@@H](NC(=O)[C@H](CO)NC(=O)[C@H](CC(C)C)NC(=O)[C@H](CC(=O)O)NC(=O)[C@H](CO)NC(=O)[C@@H](NC(=O)[C@H](Cc1ccccc1)NC(=O)[C@@H](NC(=O)CNC(=O)[C@H](CCC(=O)O)NC(=O)C(C)(C)NC(=O)[C@@H](N)Cc1ccc(O)cc1)[C@@H](C)O)[C@@H](C)O)[C@@H](C)CC)C(=O)N[C@@H](CCC(=O)O)C(=O)N[C@@H](CCC(=O)O)C(=O)N[C@@H](CCCNC(=N)N)C(=O)N[C@@H](C)C(=O)N[C@@H](C)C(=O)N[C@](C)(CCCCN)C(=O)N[C@@H](CCC(=O)O)C(=O)N[C@@H](Cc1ccccc1)C(=O)N[C@H](C(=O)N[C@@H](CCC(=O)O)C(=O)N[C@@H](Cc1c[nH]c2ccccc12)C(=O)N[C@@H](CC(C)C)C(=O)N[C@@H](CCCCN)C(=O)N[C@@H](CC(N)=O)C(=O)N[C@H](C(=O)NCC(=O)N1CCC[C@H]1C(=O)N[C@@H](CO)C(=O)N[C@@H](CO)C(=O)NCC(=O)N[C@@H](C)C(=O)N1CCC[C@H]1C(=O)N1CCC[C@H]1C(=O)N1CCC[C@H]1C(=O)N[C@@H](CO)C(N)=O)[C@@H](C)O)[C@@H](C)CC)C(=O)O [SEQ ID NO: 9, Y-Aib-E-G-T-F-T-S-D-L-S-I-Q-K(γE-x53)-E-E-R-A-A-(R)MeLys-E-F-I-E-W-L-K-N-T-G-P-S-S-G-A-P-P-P-S-NH2] (H-Y[Aib]EGTFTSDLSIQK([γGlu-Palmitoyl])EERAA[d(αMeK)]EFIEWLKNTGPSSGAPPPS-NH2) | 0.0135 nM | > 1000 nM | 0.0932 nM | – | – | – | – | – | – | – |
| CCCCCCCCCCCCCCCCCC(=O)N[C@@H](CCC(=O)NCCCC[C@H](NC(=O)[C@H](CCC(N)=O)NC(=O)[C@H](CCCCN)NC(=O)[C@H](CO)NC(=O)[C@H](CC(C)C)NC(=O)[C@H](CC(=O)O)NC(=O)[C@H](CO)NC(=O)[C@@H](NC(=O)[C@H](Cc1ccccc1)NC(=O)[C@@H](NC(=O)CNC(=O)[C@H](CCC(N)=O)NC(=O)C(C)(C)NC(=O)[C@@H](N)Cc1ccc(O)cc1)[C@@H](C)O)[C@@H](C)O)C(=O)N[C@@H](CC(=O)O)C(=O)N[C@@H](CCC(=O)O)C(=O)N[C@@H](CCC(N)=O)C(=O)N[C@@H](CCCNC(=N)N)C(=O)N[C@@H](C)C(=O)N[C@@](C)(CCCCN)C(=O)N[C@@H](CCC(=O)O)C(=O)N[C@@H](Cc1ccccc1)C(=O)N[C@H](C(=O)N[C@@H](CCC(=O)O)C(=O)N[C@@H](Cc1c[nH]c2ccccc12)C(=O)N[C@@H](CC(C)C)C(=O)N[C@@H](CCCCN)C(=O)N[C@@H](CO)C(=O)NCC(=O)NCC(=O)N1CCC[C@H]1C(=O)N[C@@H](CO)C(=O)N[C@@H](CO)C(=O)NCC(=O)N[C@@H](C)C(=O)N1CCC[C@H]1C(=O)N1CCC[C@H]1C(=O)N1CCC[C@H]1C(=O)N[C@@H](CO)C(N)=O)[C@@H](C)CC)C(=O)O [SEQ ID NO: 12, Y-Aib-Q-G-T-F-T-S-D-L-S-K-Q-K(γE-x70)-D-E-Q-R-A-(S)MeLys-E-F-I-E-W-L-K-S-G-G-P-S-S-G-A-P-P-P-S-NH2] | – | – | – | ~11 mmol/L | > 1000 µg/mL | 983 µg/mL (≈ 211 µM) | 98.0% | 91.0% | – | – |
| CCCCCCCCCCCCCCCCCC(=O)N[C@@H](CCC(=O)NCCCC[C@H](NC(=O)[C@H](CCC(N)=O)NC(=O)[C@@H](NC(=O)[C@H](CO)NC(=O)[C@H](CC(C)C)NC(=O)[C@H](CC(=O)O)NC(=O)[C@H](CO)NC(=O)[C@@H](NC(=O)[C@H](Cc1ccccc1)NC(=O)[C@@H](NC(=O)CNC(=O)[C@H](CCC(N)=O)NC(=O)C(C)(C)NC(=O)[C@@H](N)Cc1ccc(O)cc1)[C@@H](C)O)[C@@H](C)O)[C@@H](C)CC)C(=O)N[C@@H](CC(=O)O)C(=O)N[C@@H](CCC(=O)O)C(=O)N[C@@H](CCC(N)=O)C(=O)N[C@@H](CCCNC(=N)N)C(=O)N[C@@H](C)C(=O)N[C@@](C)(CCCN)C(=O)N[C@@H](CCC(=O)O)C(=O)N[C@@H](Cc1ccccc1)C(=O)N[C@H](C(=O)N[C@@H](CCC(=O)O)C(=O)N[C@@H](Cc1c[nH]c2ccccc12)C(=O)N[C@@H](CC(C)C)C(=O)N[C@@H](CCCCN)C(=O)N[C@@H](C)C(=O)NCC(=O)NCC(=O)N1CCC[C@H]1C(=O)N[C@@H](CO)C(=O)N[C@@H](CO)C(=O)NCC(=O)N[C@@H](C)C(=O)N1CCC[C@H]1C(=O)N1CCC[C@H]1C(=O)N1CCC[C@H]1C(=O)N[C@@H](CO)C(N)=O)[C@@H](C)CC)C(=O)O [SEQ ID NO: 15, Y-Aib-Q-G-T-F-T-S-D-L-S-I-Q-K(γE-x70)-D-E-Q-R-A-(S)MeOrn-E-F-I-E-W-L-K-A-G-G-P-S-S-G-A-P-P-P-S-NH2] (H-Y[Aib]QGTFTSDLSIQK([γGlu-Stearoyl])DEQRA[αMeOrn]EFIEWLKAGGPSSGAPPPS-NH2) | 0.0161 nM | – | 0.0089 nM | ~12 mmol/L | > 1000 µg/mL | > 1000 µg/mL | 98.0% | 98.0% | 3740 ng/mL | 2.9 h |
